Measurements reported in patent US9029325B2, “Amylin analogues and pharmaceutical compositions thereof” (Novo Nordisk A/S, priority 2011, dated 2015).
Starred links: 1 amine or outer side, 2 acyl side, 3 side chain; linkers in the order of their positions; H or OH if unused. Positions of bridges follow the written chain, without caps; N, C: chain ends. Residues, ends and D or L forms follow the SMILES beside them. *: point of attachment. C20 diacid = O=C(O)CCCCCCCCCCCCCCCCCCC(=O)*; C18 diacid = O=C(O)CCCCCCCCCCCCCCCCC(=O)*; γGlu = O=C(O)[C@H](CCC(=O)[*:2])N[*:1]

Test: Assay (I) efficacy testing on appetite (food intake), ad libitum fed rat model
Format: in vivo, Sprague Dawley (SD) rats
Conditions: 3 nmol/kg
Method in brief: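 Single ip, po or sc dosing (0.01-3 mg/kg, by body weight) at the start of the dark phase, in individually housed Sprague Dawley rats of 200-250 g with free food and water. Intake was logged per rat each hour to 7 h, then at 24 h (occasionally 48 h), against a vehicle group; outliers removed by Grubbs test.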

SMILES | Food intake reduction 0-24 h 3 nmol/kg (%) | Food intake reduction 24-48 h 3 nmol/kg (%)
CC[C@H](C)[C@H](NC(=O)[C@@H]1CCCN1C(=O)CNC(=O)[C@H](Cc1ccccc1)NC(=O)[C@H](CC(N)=O)NC(=O)[C@H](CC(N)=O)NC(=O)[C@H](CO)NC(=O)[C@H](CO)NC(=O)[C@H](Cc1c[nH]cn1)NC(=O)[C@H](Cc1c[nH]cn1)NC(=O)[C@H](CC(C)C)NC(=O)[C@H](Cc1ccccc1)NC(=O)[C@H](CCC(=O)O)NC(=O)[C@H](C)NC(=O)[C@H](CC(C)C)NC(=O)[C@H](CCCNC(=N)N)NC(=O)[C@H](CCC(N)=O)NC(=O)[C@@H](NC(=O)[C@H](C)NC(=O)[C@@H]1CSSC[C@H](NC(=O)[C@H](CCCCN)NC(=O)[C@H](CCC(=O)O)NC(=O)CC[C@H](NC(=O)CCCCCCCCCCCCCCCCCCC(=O)O)C(=O)O)C(=O)N[C@@H](CC(N)=O)C(=O)N[C@@H]([C@@H](C)O)C(=O)N[C@@H](C)C(=O)N[C@@H]([C@@H](C)O)C(=O)N1)[C@@H](C)O)C(=O)N[C@@H](CC(C)C)C(=O)N1CCC[C@H]1C(=O)N1CCC[C@H]1C(=O)N[C@H](C(=O)N[C@@H](CC(N)=O)C(=O)N[C@H](C(=O)NCC(=O)N[C@@H](CO)C(=O)N[C@@H](CC(N)=O)C(=O)N[C@H](C(=O)N[C@@H](Cc1ccc(O)cc1)C(N)=O)[C@@H](C)O)C(C)C)[C@@H](C)O [compound 26] ({C20 diacid-γGlu}-EKCNTATCATQRLAEFLHHSSNNFGPILPPTNVGSNTY-NH2; disulfide 3-8) | 46% | 39%
CC[C@H](C)[C@H](NC(=O)[C@@H]1CCCN1C(=O)CNC(=O)[C@H](Cc1ccccc1)NC(=O)[C@H](CC(N)=O)NC(=O)[C@H](CC(N)=O)NC(=O)[C@H](CO)NC(=O)[C@H](CO)NC(=O)[C@H](Cc1c[nH]cn1)NC(=O)[C@H](Cc1c[nH]cn1)NC(=O)[C@H](CC(C)C)NC(=O)[C@H](Cc1ccccc1)NC(=O)[C@H](CCC(=O)O)NC(=O)[C@H](C)NC(=O)[C@H](CC(C)C)NC(=O)[C@H](CCCNC(=N)N)NC(=O)[C@H](CCC(N)=O)NC(=O)[C@@H](NC(=O)[C@H](C)NC(=O)[C@@H]1CSSC[C@H](NC(=O)CC[C@H](NC(=O)CCCCCCCCCCCCCCCCCCC(=O)O)C(=O)O)C(=O)N[C@@H](CC(N)=O)C(=O)N[C@@H]([C@@H](C)O)C(=O)N[C@@H](C)C(=O)N[C@@H]([C@@H](C)O)C(=O)N1)[C@@H](C)O)C(=O)N[C@@H](CC(C)C)C(=O)N1CCC[C@H]1C(=O)N1CCC[C@H]1C(=O)N[C@H](C(=O)N[C@@H](CC(N)=O)C(=O)N[C@H](C(=O)NCC(=O)N[C@@H](CO)C(=O)N[C@@H](CC(N)=O)C(=O)N[C@H](C(=O)N[C@@H](Cc1ccc(O)cc1)C(N)=O)[C@@H](C)O)C(C)C)[C@@H](C)O [compound 28] ({C20 diacid-γGlu}-CNTATCATQRLAEFLHHSSNNFGPILPPTNVGSNTY-NH2; disulfide 1-6 (inferred); C-terminus assumed) | 39% | 36%
CC[C@H](C)[C@H](NC(=O)[C@@H]1CCCN1C(=O)CNC(=O)[C@H](Cc1ccccc1)NC(=O)[C@H](CC(N)=O)NC(=O)[C@H](CC(N)=O)NC(=O)[C@H](CO)NC(=O)[C@H](CO)NC(=O)[C@H](Cc1c[nH]cn1)NC(=O)[C@H](Cc1c[nH]cn1)NC(=O)[C@H](CC(C)C)NC(=O)[C@H](Cc1ccccc1)NC(=O)[C@H](CCC(=O)O)NC(=O)[C@H](C)NC(=O)[C@H](CC(C)C)NC(=O)[C@H](CCCNC(=N)N)NC(=O)[C@H](CCC(N)=O)NC(=O)[C@@H](NC(=O)[C@H](C)NC(=O)[C@@H]1CSSC[C@H](NC(=O)[C@H](CCC(=O)O)NC(=O)CC[C@H](NC(=O)CCCCCCCCCCCCCCCCCCC(=O)O)C(=O)O)C(=O)N[C@@H](CC(N)=O)C(=O)N[C@@H]([C@@H](C)O)C(=O)N[C@@H](C)C(=O)N[C@@H]([C@@H](C)O)C(=O)N1)[C@@H](C)O)C(=O)N[C@@H](CC(C)C)C(=O)N1CCC[C@H]1C(=O)N1CCC[C@H]1C(=O)N[C@H](C(=O)N[C@@H](CC(N)=O)C(=O)N[C@H](C(=O)NCC(=O)N[C@@H](CO)C(=O)N[C@@H](CC(N)=O)C(=O)N[C@H](C(=O)N[C@@H](Cc1ccc(O)cc1)C(N)=O)[C@@H](C)O)C(C)C)[C@@H](C)O [compound 29] ({C20 diacid-γGlu}-ECNTATCATQRLAEFLHHSSNNFGPILPPTNVGSNTY-NH2; disulfide 2-7) | 15% | 5%
CC[C@H](C)[C@H](NC(=O)[C@@H]1CCCN1C(=O)CNC(=O)[C@H](Cc1ccccc1)NC(=O)[C@H](CC(N)=O)NC(=O)[C@H](CC(N)=O)NC(=O)[C@H](CO)NC(=O)[C@H](CO)NC(=O)[C@H](Cc1c[nH]cn1)NC(=O)[C@H](Cc1c[nH]cn1)NC(=O)[C@H](CC(C)C)NC(=O)[C@H](Cc1ccccc1)NC(=O)[C@H](CCC(=O)O)NC(=O)[C@H](C)NC(=O)[C@H](CC(C)C)NC(=O)[C@H](CCCNC(=N)N)NC(=O)[C@H](CCC(N)=O)NC(=O)[C@@H](NC(=O)[C@H](C)NC(=O)[C@@H]1CSSC[C@H](NC(=O)[C@H](CCCCN)NC(=O)CC[C@H](NC(=O)CCCCCCCCCCCCCCCCC(=O)O)C(=O)O)C(=O)N[C@@H](CC(N)=O)C(=O)N[C@@H]([C@@H](C)O)C(=O)N[C@@H](C)C(=O)N[C@@H]([C@@H](C)O)C(=O)N1)[C@@H](C)O)C(=O)N[C@@H](CC(C)C)C(=O)N1CCC[C@H]1C(=O)N1CCC[C@H]1C(=O)N[C@H](C(=O)N[C@@H](CC(N)=O)C(=O)N[C@H](C(=O)NCC(=O)N[C@@H](CO)C(=O)N[C@@H](CC(N)=O)C(=O)N[C@H](C(=O)N[C@@H](Cc1ccc(O)cc1)C(N)=O)[C@@H](C)O)C(C)C)[C@@H](C)O [compound 46] ({C18 diacid-γGlu}-KCNTATCATQRLAEFLHHSSNNFGPILPPTNVGSNTY-NH2; disulfide 2-7 (inferred); C-terminus assumed) | 54% | 27%
CC[C@H](C)[C@H](NC(=O)[C@@H]1CCCN1C(=O)CNC(=O)[C@H](Cc1ccccc1)NC(=O)[C@H](CC(N)=O)NC(=O)[C@H](CC(N)=O)NC(=O)[C@H](CO)NC(=O)[C@H](CO)NC(=O)[C@H](Cc1c[nH]cn1)NC(=O)[C@H](CCCNC(=N)N)NC(=O)[C@H](CC(C)C)NC(=O)[C@H](Cc1ccccc1)NC(=O)[C@H](CCC(=O)O)NC(=O)[C@H](C)NC(=O)[C@H](CC(C)C)NC(=O)[C@H](CCCNC(=N)N)NC(=O)[C@H](CCC(N)=O)NC(=O)[C@@H](NC(=O)[C@H](C)NC(=O)[C@@H]1CSSC[C@H](NC(=O)[C@H](CCCCN)NC(=O)CC[C@H](NC(=O)CCCCCCCCCCCCCCCCCCC(=O)O)C(=O)O)C(=O)N[C@@H](CC(N)=O)C(=O)N[C@@H]([C@@H](C)O)C(=O)N[C@@H](C)C(=O)N[C@@H]([C@@H](C)O)C(=O)N1)[C@@H](C)O)C(=O)N[C@@H](CC(C)C)C(=O)N1CCC[C@H]1C(=O)N1CCC[C@H]1C(=O)N[C@H](C(=O)N[C@@H](CC(N)=O)C(=O)N[C@H](C(=O)NCC(=O)N[C@@H](CO)C(=O)N[C@@H](CC(N)=O)C(=O)N[C@H](C(=O)N[C@@H](Cc1ccc(O)cc1)C(N)=O)[C@@H](C)O)C(C)C)[C@@H](C)O [compound 50] ({C20 diacid-γGlu}-KCNTATCATQRLAEFLRHSSNNFGPILPPTNVGSNTY-NH2; disulfide 2-7 (inferred); C-terminus assumed) | 30% | 8%
